# Values of other authors as cited in US7056909B2, “Alpha v integrin receptor antagonists” (Merck & Co., Inc., priority 2000, dated 2006).
# Settings: postmenopausal osteoporotic women, median of 22 months of treatment
substance,measurement,value
"hPTH(1–34): human parathyroid hormone 1-34 fragment (SVSEIQLMHNLGKHLNSMERVEWLRKKLQDVHNF; Parathyroid hormone; UniProt P01270 32-65, looked up, fragment)",reduction in nonvertebral fractures,54%
same,reduction in spine fractures,≥ 65%
